Experimental data: article PMC11489226 (Archives of Toxicology, 2024)
Several values for one entry are separate records, joined by “and”; a condition that tells them apart may be missing. Equal entries are not always repeated.

Experiments:
CYP2A6 = molecular target: T1, CYP2A6 (Homo sapiens, UniProt P11509); assay: Metabolism in transgenic HEK293 cells expressing CYP2A6; type: in vitro ADME; design: V5-His (vector-encoded) (C); expressed in transfected cells; conditions: 20 µM parent PCB, 24 h; for Quantification of metabolites generated from PCB28, 52, and 101: supernatant
T1 sequence (P11509 1-494): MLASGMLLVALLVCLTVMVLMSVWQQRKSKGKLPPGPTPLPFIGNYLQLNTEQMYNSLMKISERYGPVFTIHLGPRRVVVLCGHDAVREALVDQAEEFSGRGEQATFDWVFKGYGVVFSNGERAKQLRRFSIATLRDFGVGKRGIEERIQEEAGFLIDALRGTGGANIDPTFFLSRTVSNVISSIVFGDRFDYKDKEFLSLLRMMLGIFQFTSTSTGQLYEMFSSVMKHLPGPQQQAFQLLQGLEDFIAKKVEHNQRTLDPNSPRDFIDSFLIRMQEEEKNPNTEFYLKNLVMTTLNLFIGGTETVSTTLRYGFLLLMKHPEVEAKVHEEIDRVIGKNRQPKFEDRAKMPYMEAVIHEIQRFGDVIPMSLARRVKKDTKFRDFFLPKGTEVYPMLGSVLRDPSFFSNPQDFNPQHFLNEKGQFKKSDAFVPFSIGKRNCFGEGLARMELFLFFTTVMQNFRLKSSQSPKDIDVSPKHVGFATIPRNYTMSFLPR
Protocol: (§1) For the generation of transgenic cell lines, we used semi-adherent HEK293 cells (DSMZ, ACC305, human embryonic kidney cells) which were cultured on a daily basis in DMEM medium supplemented with 10% (FCS) and 1% penicillin/streptomycin. In a first step CYP1A2, CYP2C8, CYP2C9, CYP3A4, CYP2A6, and CYP2E1 cDNA were cloned into the plasmid pcDNATM3.1/V5-His TOPO® using human liver RNA as a template and using the following primers: CYP1A2 for5′-[…]-3′, CYP1A2 rev 5′-[…]-3′; CYP2C8 for 5′-[…]-3′, CYP2C8 rev 5′-[…]-3′; CYP2C9 for 5′-[…]-3′, CYP2C9 rev 5′-[…]-3′; CYP3A4 for 5′-[…]-3′, CYP3A4 rev 5′-[…]-3′, CYP2A6 for 5′-[…]-3′, CYP2A6 rev 5′-[…]-3′; CYP2E1 for 5′-[…]-3′, CYP2E1 rev 5′-[…]-3′. Final constructs were verified with Sanger DNA sequencing and restriction digestion. For transfection, 3 × 10^6 HEK293 cells were pre-incubated in a 10 cm dish in DMEM medium with 10% FCS, but without antibiotics, for 18 to 24 h. When the cells reached approximately 70% confluency, they were transfected using TransIT-LT1 transfection reagent (Biozol, Eiching, Germany). The TransIT-LT1 reagent was warmed to room temperature and vortexed. 1.63 mL Opti-MEM, 16.25 µL plasmid DNA (1 µg/µL), and 48.75 µL TransIT-LT1 reagent were mixed and incubated for 15 to 30 min. The mixture was then added dropwise to the medium of the cells, and the cells were incubated again at 37 °C and 5% CO2. After 24 h, the medium was replaced with standard medium and geneticin was added for selection (1 mg/mL). Cells were selected for 6–8 weeks in bulk culture, and single cell clones were obtained subsequently by limiting dilution. Each clone was checked for insertion by PCR using genomic DNA as a template.
(§2) Parallel samples were run without the addition of PCBs. At a confluence of 80%, PCBs (20 μM each, dissolved in ethanol) were added and cells were incubated for 24 h before harvest of supernatants. Supernatants were diluted 1:2 with 80 μL acetate buffer 0.1 M (pH = 5.3). 100 μL of this dilution were further incubated with 100 μL of ammonium acetate buffer 0.1 M (pH = 5.3) and 5 μL of β-Glucuronidase/Arylsulfatase enzyme overnight in a drying oven at 37 °C for enzymatic hydrolysis to release conjugated compounds. 50 μL of a mix of internal standards (10 ng/mL) and 600 μL of methanol were added to the samples, then mixed by vortexing for 1 min and centrifuged for 10 min at 3400g. The individual supernatants were transferred to glass LC vials and evaporated to approximately 50 μL at 45 °C under a gentle stream of nitrogen. Finally, 0.1 mol/ L ammonium acetate buffer was added to a final volume of 100 μL and then transferred to an insert for analysis.
(§3) HEK293 cells overexpressing the respective CYP enzymes were seeded onto 6-well plates and were treated with or without 10 µM of the respective probe drug in DMEM medium for 24 hours at 37 °C and 5 % CO2. After incubation 200 µL DMEM were collected, cells were washed with PBS and adherent cells were lysed in 500 µL methanol for 20 minutes. Analytes were measured by LC-MS/MS either in methanol cell lysates or in DMEM supernatant.
(§4) 50 µL of DMEM samples were protein precipitated by adding 200 µL of methanol and were centrifuged for 20 min, 17,000 g and 4°C. Supernatants were diluted in water or 40 % methanol according to dilution factor. Methanol cell lysates were diluted ½ with water and centrifuged for 20 min, 17,000 g and 4°C. 5 µL of the processed samples were injected for LC-MS analysis.

CYP2E1 = CYP2E1 (Homo sapiens, UniProt P05181); assay: Metabolism in transgenic HEK293 cells expressing CYP2E1; conditions: 20 µM parent PCB, 24 h, supernatant
Chain of CYP2E1 (P05181 whole entry): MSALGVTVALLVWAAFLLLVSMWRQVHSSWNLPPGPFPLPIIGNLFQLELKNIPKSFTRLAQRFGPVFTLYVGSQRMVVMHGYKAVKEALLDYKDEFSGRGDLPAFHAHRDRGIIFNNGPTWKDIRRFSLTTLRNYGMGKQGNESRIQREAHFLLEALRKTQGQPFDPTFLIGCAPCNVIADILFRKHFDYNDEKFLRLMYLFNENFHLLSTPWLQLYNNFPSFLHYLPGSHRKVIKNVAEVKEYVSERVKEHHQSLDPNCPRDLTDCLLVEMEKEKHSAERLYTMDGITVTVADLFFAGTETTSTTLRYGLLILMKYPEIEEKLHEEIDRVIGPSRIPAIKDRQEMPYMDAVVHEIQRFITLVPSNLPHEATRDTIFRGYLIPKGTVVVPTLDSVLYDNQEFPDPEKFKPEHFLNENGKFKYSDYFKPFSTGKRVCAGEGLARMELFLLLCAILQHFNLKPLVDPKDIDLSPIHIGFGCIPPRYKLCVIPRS
Protocol: as §1, §2, §3, §4

CYP1A2 = molecular target: T2, CYP1A2 (Homo sapiens, UniProt P05177); assay: Metabolism in transgenic HEK293 cells expressing CYP1A2 (LC-MS/MS of supernatant); conditions: for Quantification of metabolites generated from PCB28, 52, and 101: 20 µM parent PCB, 24 h, supernatant; for Metabolite concentration formed, range across cell clones: HEK293CYP1A2 cell clones, 20 µM PCB28, 24 h
T2 sequence (P05177 1-516): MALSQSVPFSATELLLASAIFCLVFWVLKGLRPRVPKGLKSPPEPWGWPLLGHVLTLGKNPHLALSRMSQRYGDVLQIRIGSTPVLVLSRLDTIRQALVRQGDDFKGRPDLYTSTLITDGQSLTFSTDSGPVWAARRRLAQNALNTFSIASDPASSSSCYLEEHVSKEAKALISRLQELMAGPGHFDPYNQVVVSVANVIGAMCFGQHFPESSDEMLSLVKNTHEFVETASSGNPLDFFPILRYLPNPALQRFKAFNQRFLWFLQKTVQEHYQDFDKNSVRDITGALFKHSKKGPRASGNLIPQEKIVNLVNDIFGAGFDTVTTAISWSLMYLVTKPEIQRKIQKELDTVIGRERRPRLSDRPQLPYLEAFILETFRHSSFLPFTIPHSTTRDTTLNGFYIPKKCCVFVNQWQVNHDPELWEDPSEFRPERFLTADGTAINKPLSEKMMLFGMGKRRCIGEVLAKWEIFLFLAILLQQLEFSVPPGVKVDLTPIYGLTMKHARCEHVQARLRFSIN
Protocol: as §1, §2, §3, §4

Structure (SMILES)	Quantification of metabolites generated from PCB28, 52, and 101 (CYP2A6; CYP2A6 Clone C4)	Quantification of metabolites generated from PCB28, 52, and 101 (CYP2A6; CYP2A6 Clone C5)	Metabolite concentration formed, range across cell clones (CYP2A6; HEK293CYP2A6 cell lines)	Quantification of metabolites generated from PCB28, 52, and 101 (CYP2E1; CYP2E1 Clone B4)	Quantification of metabolites generated from PCB28, 52, and 101 (CYP2E1; CYP2E1 Clone B5)	Quantification of metabolites generated from PCB28, 52, and 101 (CYP2E1; CYP2E1 Clone E6)	Quantification of metabolites generated from PCB28, 52, and 101 (CYP1A2; CYP1A2, clone G5)	Quantification of metabolites generated from PCB28, 52, and 101 (CYP1A2; CYP1A2, clone G8)	Metabolite concentration formed, range across cell clones (CYP1A2)	Quantification of metabolites generated from PCB28, 52, and 101 (CYP2A6; CYP2A6 Clone B7)
Oc1cc(Cl)c(-c2ccc(Cl)cc2)cc1Cl [4-OHCB31, 2,4′,5-trichloro-4-biphenylol]	0,63 nM	0,11 nM	0.18–1.31 µg/L and 0.66–4.8 nM	<LOQ	<LOQ	<LOQ	0,69 nM	1,11 nM	0.19–0.30 µg/L and 0.69–1.11 nM	–
Oc1cc(-c2ccc(Cl)cc2)c(Cl)cc1Cl [5-OHCB28, 2,4,4′-trichloro-5-biphenylol]	1,33 nM	0,22 nM	–	<LOQ	<LOQ	<LOQ	6,22 nM	9,07 nM	1.7–2.48 µg/L and 6.22–9.07 nM	1,84 nM
